Key:
AR [1] = target: T1, AR (Homo sapiens, UniProt P10275); test: poly-ubiquitination assay; type: cell-based; conditions: with Compound A treatment
T1 sequence (P10275 1-920): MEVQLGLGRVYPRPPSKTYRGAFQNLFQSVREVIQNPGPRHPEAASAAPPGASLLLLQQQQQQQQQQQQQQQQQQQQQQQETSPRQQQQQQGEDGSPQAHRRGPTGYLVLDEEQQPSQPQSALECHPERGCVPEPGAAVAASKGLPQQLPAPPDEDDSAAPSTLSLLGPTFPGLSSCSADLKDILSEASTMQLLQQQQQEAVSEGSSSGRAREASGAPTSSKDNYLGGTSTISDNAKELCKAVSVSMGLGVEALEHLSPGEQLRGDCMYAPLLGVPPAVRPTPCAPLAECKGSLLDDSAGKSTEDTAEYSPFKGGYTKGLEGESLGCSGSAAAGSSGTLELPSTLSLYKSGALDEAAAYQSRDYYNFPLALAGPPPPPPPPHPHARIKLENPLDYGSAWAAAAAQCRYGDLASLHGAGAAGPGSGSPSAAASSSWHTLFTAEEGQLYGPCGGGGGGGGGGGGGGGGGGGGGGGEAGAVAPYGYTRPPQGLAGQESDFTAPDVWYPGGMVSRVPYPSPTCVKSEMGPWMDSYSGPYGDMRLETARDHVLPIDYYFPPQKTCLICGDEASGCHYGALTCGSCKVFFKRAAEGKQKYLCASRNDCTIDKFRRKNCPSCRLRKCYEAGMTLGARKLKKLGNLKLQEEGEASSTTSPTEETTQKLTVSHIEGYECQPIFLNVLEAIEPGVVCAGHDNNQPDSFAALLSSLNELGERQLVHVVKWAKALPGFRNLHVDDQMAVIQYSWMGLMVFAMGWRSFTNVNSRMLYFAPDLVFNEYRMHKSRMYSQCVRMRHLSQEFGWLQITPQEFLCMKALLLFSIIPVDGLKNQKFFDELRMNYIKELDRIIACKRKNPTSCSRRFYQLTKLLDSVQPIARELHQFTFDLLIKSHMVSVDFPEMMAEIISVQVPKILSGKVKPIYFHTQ

[2] = test system: mutant AR proteins (ligand binding domain mutations); test: degradation of clinically relevant AR point mutants in HEK293 or T-REx-293 cells; type: cell-based, human; conditions: stably transfected
Protocol: Plasmids expressing AR WT or the indicated AR mutants were stably transfected into HEK293 cells. Each cell line was treated with indicated concentrations of Compound A for 24 hours. AR levels were determined by AR ELISA without background subtraction. […]
To assess the ability of Compound A to degrade variants of the AR, vectors expressing wild-type AR or mutant AR proteins harboring clinically observed mutations in the ligand binding domain (13 with single amino acid changes or 4 with 2 amino acid changes) (Azad A. A., Volik S. V., Wyatt A. W., et al. Androgen receptor gene aberrations in circulating cell-free DNA: biomarkers of therapeutic resistance in castration-resistant prostate cancer. Clin Cancer Res. 2015; 21:2315-2324; Robinson D., Van Allen E. M., Wu Y. M., et al. Integrative clinical genomics of advanced prostate cancer. Cell. 2015; 161:1215-1228; Ledet E. M., Lilly M. B., Sonpavde G., et al. Comprehensive analysis of AR alterations in circulating tumor DNA from patients with advanced prostate cancer. Oncologist.

PSA = test: plasma PSA levels by ELISA, intact VCaP tumor model; type: in vivo, mouse
From the text: Plasma PSA levels are used as a clinical biomarker of disease progression and are thought to be closely related with the degree of AR activity (Catalona, W. J., Richie, J. P., Ahmann, F. R., et al. Comparison of digital rectal examination and serum prostate specific antigen in the early detection of prostate cancer: results of a multicenter clinical trial of 6,630 men. The Journal of Urology. 1994; 151(5):1283-1290. Cleutjens, K. B., van Eekelen, C. C., van der Korput, H. A., et al. Two androgen response regions cooperate in steroid hormone regulated activity of the prostate-specific antigen promoter. J Biol Chem. 1996; 271(11):6379-6388.). Plasma PSA levels upon Compound A treatment were evaluated by ELISA in samples from the intact VCaP tumor model.

VCaP cells = test: VCaP cell proliferation in a high androgen environment (R1881); type: cell-based, human; conditions: Compound A 300 nM vs enzalutamide 1,000 nM, R1881 0.01 to 1 nM, 5 days
Protocol: Cell proliferation was determined using the CellTiter Glo® assay.

AR [3] = target: T1, AR; test: AR degradation in castrated mice bearing VCaP xenografts (western blotting); type: in vivo, mouse; design: from tissue; host or cells: VCaP xenograft tumour tissue from castrated CB17/SCID mice
Protocol: Tumors were harvested 16 hours post-dose and tumor AR level was established by western blotting. Antibody recognizing human mitochondria specific antibody (Mito.C) was employed as a loading control. The quantitation of AR levels from the western blot is shown (lower panel).
Castration eliminates testosterone produced by the testes. Upon castration, prostate tumor cells implanted in the mouse start to produce testosterone on their own, enabling their growth. The effect of Compound A on AR degradation in vivo was evaluated in castrated mice bearing VCaP xenografts. To recapitulate human CRPC, when the implanted tumors reached a volume of approximately 100 mm^3, the mice were surgically castrated. Three weeks after castration, mice were administered a single PO dose of Compound A at 10, 3, 1, 0.3, 0.1, 0.03, or 0 (vehicle) mg/kg via gavage. Sixteen hours after treatment, the tumor tissues were collected, and lysates were prepared to assess AR expression by western blotting. At Compound A doses of 10, 3, 1, 0.3, 0.1, and 0.03 mg/kg, AR was reduced on average by 96%, 91%, 81%, 73%, -5%, and 14%, respectively (FIG. 11), compared to vehicle control.

COc1cc(O[C@H]2C(C)(C)[C@H](NC(=O)c3ccc(N4CCC(CN5CCN(c6ccc(C(=O)N[C@H]7CCC(=O)NC7=O)c(F)c6)CC5)CC4)cc3)C2(C)C)ccc1C#N [Compound A, 4-(4-((1-(4-(((1R,3R)-3-(4-cyano-3-methoxyphenoxy)-2,2,4,4-tetramethylcyclobutyl)carbamoyl)phenyl)piperidin-4-yl)methyl)piperazin-1-yl)-N—((S)-2,6-dioxopiperidin-3-yl)-2-fluorobenzamide]
ubiquitination of the AR (AR [1]): significantly increased
degradation of all clinically relevant AR point mutants tested vs wild-type AR [2]: comparable to that observed for wild-type AR
plasma PSA levels vs enzalutamide (PSA; 3 mg/kg and 10 mg/kg vs 20 mg/kg enzalutamide): reduced PSA levels more robustly than 20 mg/kg of enzalutamide
plasma PSA levels (PSA; all 3 doses (10, 3, 1 mg/kg/day), tumor-bearing intact mice): reduced PSA levels in a dose-dependent manner
antiproliferative effects vs enzalutamide (VCaP cells): more potent antiproliferative effects than enzalutamide
AR reduced on average vs vehicle control (AR [3]; single PO dose 0.03 mg/kg, 16 hours): 14%
AR reduced on average vs vehicle control (AR [3]; single PO dose 0.1 mg/kg, 16 hours): -5%
AR reduced on average vs vehicle control (AR [3]; single PO dose 0.3 mg/kg, 16 hours): 73%
AR reduced on average vs vehicle control (AR [3]; single PO dose 1 mg/kg, 16 hours): 81%
AR reduced on average vs vehicle control (AR [3]; single PO dose 3 mg/kg, 16 hours): 91%
AR reduced on average vs vehicle control (AR [3]; single PO dose 10 mg/kg, tumors 16 hours post-dose): 96%

Reference: patent US20240180900A1, “COMPOUNDS AND METHODS FOR THE TARGETED DEGRADATION OF ANDROGEN RECEPTOR” (Arvinas Operations, Inc., priority 2022, published 2024)
